# “Also recorded” adds a separate entry of the source.
# Tested on: Hela cells
# Test: Cell uptake of FAM-labelled oligomers, fluorescence confocal microscopy
# Format: cell-based
# Conditions: fluorescein-labelled, 0.5 μM, 24 h, 37° C.
# Method: Culture and transfection of Hela cells with fluorescein-labeled aegPNA, AP-PNA, GP-PNA oligomers and Tat peptide were carried out according to previously published protocols (Janowski, B. A., et al., Nature Protocols (2006) 1, 436; Shiraishi, T., &. Nielsen, P. E., Nature Protocols (2006) 1, 633). Hela cells were grown in 75-cm^2 culture flasks at 37° C. in an atmosphere of 5% CO2 in Hyclone DMEM/High Glucose medium without antibiotics and were plated at 100,000 cells per well on 6-well Lab-Tek chambered coverglass slides in DMEM medium and cultured two days before transfection. Oligomer solutions were prepared by diluting a 200 μM stock solution at 1×PBS buffer to 0.5 μM with warmed (37° C.) medium. The cell medium was discarded and cells were washed with 1×PBS buffer followed by incubation with the above prepared oligomers at a concentration of 0.5 μM for 24 h at 37° C. in an atmosphere of 5% CO2. The medium was removed and cells were washed with 1×PBS buffer (2 mL×3) and fixed with […]. The cells were imaged with Olympus IX51 fitted with Cool SNAP^HQ camera and analyzed using Metamorph software (Molecular Devices).
# For the present example the GP-PNA and AP-PNA with the 6-C spacer was chose to examine the cell-uptake activity, since these display the strongest binding affinity when complexed to complementary DNA. Dodecamer aegPNA (Fl-TAGTAGATCACT-Gly-NH2) (SEQ ID NO:1), AP-PNA (Fl-TA^6aGT^6aAG^6aAT^6aCA^6aCT^6a-Gly-NH2) (SEQ ID NO:2), GP-PNA (Fl-TA^6gGT^6gAG^6gAT^6gCA^6gCT^6g-Gly-NH2) (SEQ ID NO:3) oligomers and Tat peptide (Fl-Tyr-Gly-Arg-Lys-Lys-Arg-Arg-Gln-Arg-Arg-Arg-NH2) (SEQ ID NO:4) were synthesized and labeled by fluorescein at the N-terminus. These oligomers were incubated with Hela cells for 24 h at 37° C. and were fixed by paraformaldehyde after PBS (1×) buffer washing. Their uptake properties were determined by fluorescence confocal microscopy. […] To conclude, the guanidino groups pendant from the backbone amide nitrogen confer cell-permeability to the modified PNAs.
row,Substance,cell uptake (fluorescence in cells)
1,"Fl-TAGTAGATCACT-Gly-NH2 [aegPNA, reference compound]",poor cell uptake property
2,Fl-TA^6aGT^6aAG^6aAT^6aCA^6aCT^6a-Gly-NH2 [AP-PNA],better cell uptake property than the aegPNA; also recorded: moderate enhancement in cell uptake activity compared with aegPNA
3,Fl-TA^6gGT^6gAG^6gAT^6gCA^6gCT^6g-Gly-NH2 [GP-PNA],clear and strong fluorescence images were detected in almost all cells; also recorded: readily taken up by Hela cells

# Reference: patent publication US8859490B2, “Peptide nucleic acid monomers and oligomers” (Nanyang Technological University, priority 2008, dated 2014)
